Measurements from patent US5977442A, “Salicylic acid induced map kinase and its use for enhanced disease resistance in plants” (priority 1997, dated 1999).

Columns and labels:
p48 SIP kinase [1] = assay: In-gel kinase activity assay (MBP substrate) in extracts of treated tobacco suspension cells: activation of p48 SIP kinase; type: cell-based, Nicotiana tabacum cv Xanthi nc; conditions: tobacco suspension cells; for activation of 48 kDa (p48 SIP) kinase: 250 μM, MBP substrate; for duration of SIP kinase activation relative to SA: data not shown for analogues
Protocol: The cell suspension culture was derived from callus tissue originated from leaves of Nicotiana tabacum cv Xanthi nc and grown in MS medium supplemented with 1 mg/L α-naphthaleneacetic acid, 0.1 mg/L 2,4-dichlorophenoxyacetic acid, 0.1 mg/L benzyladenine, and 3% sucrose. Log phase cells were used three days after a 1:10 dilution. Treatment with H2 O2, SA and its analogues was performed in the original flasks in the dark to avoid any stresses associated with transfer. At various times, 10 mL cells (approximately 0.2 to 0.3 g fresh weight of cells) were harvested by filtration. The cells were quickly frozen in liquid nitrogen and stored at -80° C. until analysis.
Leaf discs were first ground to a fine powder in 1.5 ml microcentrifuge tubes using small plastic pestles. After adding 0.25 mL extraction buffer (100 mM Hepes, pH 7.5, 5 mM EDTA, 5 mM EGTA, 10 mM DTT, 10 mM Na3 VO4, 10 mM NaF, 50 mM β-glycerolphosphate, 1 mM phenylmethylsulfonyl fluoride, 5 μg/mL antipain, 5 μg/mL aprotinin, 5 μg/mL leupeptin, 10% glycerol, 7.5% polyvinylpolypyrrolidone), the mixture was sonicated for 15 seconds with a W-375 Sonicator (Heat System-Ultrasonics, Inc., N.Y.) fitted with a microprobe at setting 4 and 80% duty cycle. To prepare extracts from treated cells, cells were mixed with two volumes (w/v) of extraction buffer and were then sonicated twice for 15 seconds each in 1.5 mL microcentrifuge tube. After centrifugation at 13,000 rpm for 20 minutes, supernatants were transferred into clean tubes, quickly frozen in liquid nitrogen and stored at -80° C.
The in-gel kinase assay was performed as described previously (Zhang et al., 1993). Extracts containing 10 μg protein were electrophoresed on 10% SDS-polyacrylamide gels imbedded with either 1 mg/mL of casein, 1 mg/mL histone (Type III-SS, Sigma, MO), 1 mg/mL BSA, or 0.25 mg/mL of MBP in the separating gel as substrate for the kinase. After electrophoresis, SDS was removed by washing the gel with washing buffer (25 mM Tris, pH 7.5, 0.5 mM DTT, 0.1 mM Na3 VO4, 5 mM NaF, 0.5 mg/mL BSA, 0.1% Triton X-100 [v/v]). The buffer was changed three times, each for 30 minutes at room temperature. The kinases were allowed to renature in 25 mM Tris, pH 7.5, 1 mM DTT, 0.1 mM Na3 VO4, 5 mM NaF at 4° C. overnight with three changes of buffer. The gel was then incubated at room temperature in 30 mL reaction buffer (25 mM Tris, pH 7.5, 2 mM EGTA, 12 mM MgCl2, 1 mM DTT, 0.1 mM Na3 VO4) with 200 nM ATP plus 50 μCi γ-^32 P-ATP (3000 Ci/mmole) for 60 minutes. The reaction was stopped by transferring the gel into 5% TCA (w/v)/1% NaPPi (w/v). The unincorporated γ-^32 P-ATP was removed by washing in the same solution for at least 6 hours with 5 changes of buffer. The gel was dried onto 3 MM paper and exposed to Kodak XAR-5 film. Prestained size markers (Bio-Rad, CA) were used to calculate the size of the kinases. Quantitation of the relative kinase activities were done using a phosphoimager (Molecular Dynamics Inc., CA).

[2] = system: PR gene expression and enhanced disease resistance; conditions: Conrath et al., 1995; cited from earlier work
p48 SIP kinase [3] = molecular target: T1, p48 SIP kinase (Nicotiana tabacum, UniProt A0A1S3Z5Y0); assay: Kinetic properties, substrates, cofactors and pH dependence of p48 SIP kinase (in-solution kinase assay); type: biochemical, tobacco; conditions: for use as phospho-donor / phosphate donor: data not shown; for metal ion requirement of the enzyme: FIG. 10B
T1 construct: endogenous in cells; host or cells: SA-treated tobacco suspension culture cells (purified through the poly-L-lysine agarose step)
T1 sequence (A0A1S3Z5Y0 whole entry): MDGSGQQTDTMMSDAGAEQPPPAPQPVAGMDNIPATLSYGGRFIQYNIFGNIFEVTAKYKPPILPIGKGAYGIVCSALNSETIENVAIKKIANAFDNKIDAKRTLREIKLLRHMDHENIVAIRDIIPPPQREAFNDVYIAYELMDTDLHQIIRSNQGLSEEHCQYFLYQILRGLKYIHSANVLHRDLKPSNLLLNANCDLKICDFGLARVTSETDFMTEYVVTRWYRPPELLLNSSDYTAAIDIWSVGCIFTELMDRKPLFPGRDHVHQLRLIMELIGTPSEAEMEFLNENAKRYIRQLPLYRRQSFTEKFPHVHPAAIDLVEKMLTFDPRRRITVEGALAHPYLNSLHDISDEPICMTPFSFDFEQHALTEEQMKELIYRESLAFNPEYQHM
Protocol: FIGS. 10A and 10B show a pair of graphs illustrating the effect of pH (FIG. 10A), Mg^2+ and Mn^2+ (FIG. 10B) on p48 SIP kinase activity. Approximately 0.5 unit of partially purified enzyme was used in each test. Buffers used for measuring the effect of pH were 50 mM 2-[N-morpholino]ethanesulfonic acid (Mes, pH 5.0-8.0, .circle-solid.), 50 mM Tris (pH 6.0-9.5, .tangle-solidup.), and 50 mM 3-[cyclohexylamino]-1-propanesulfonic acid (Caps, pH 9.0-12.0, .box-solid.). For testing the effects of Mg^2+ (.circle-solid.), and Mn^2+ (.tangle-solidup.), buffer B from the last purification step was first exchanged to Mg^2+ -free buffer using a desalting column. Mg^2+ was not added in reactions for testing the effect of Mn^2+.
FIG. 11 is a graph depicting the protein substrate preference of the p48 SIP kinase. About 0.5 unit of partially purified enzyme was used in each reaction. The assay conditions were as described below in Example 1, except various concentrations of MBP (.circle-solid.), histone (.tangle-solidup.), and casein (.box-solid.) were used.
(§1) Unless specifically indicated, assays were performed at room temperature for 20 minutes in a final volume of 15 μl containing 0.5 mg/mL of MBP, 50 μM of γ-^32 P-ATP (about 3000-6000 cpm/pmole), 25 mM Tris pH 7.5, 5 mM MgCl2, 1 mM EGTA, 1 mM DTT, and enzyme. The reaction was terminated by the addition of equal volume of 150 mM H3 PO4. Twenty μL of the mixture was spotted onto an 8-well phosphocellulose filter strip (Pierce, Ill.). After washing with 150 mM H3 PO4 extensively, the phospho-protein was eluted with 0.4 mL of 1 N NaOH, and the radioactivity was determined by liquid scintillation counting. Total cpm in the reaction mixture was also determined in order to calculate the specific activity of the enzyme preparation. One unit of p48 SIP kinase was defined as the amount of enzyme that will catalyze the transfer of 1 pmole of phosphate from ATP to MBP in 1 minute.

p48 SIP kinase [4] = molecular target: T1, p48 SIP kinase; assay: In-solution kinase assay: effects of various reagents on p48 SIP kinase activity; type: biochemical, tobacco; conditions: for effect on p48 SIP kinase activity: partially purified p48 SIP kinase; for activity at 5000 µM: 5 mM
Protocol: as §1
^a For each reagent, a dose response curve was measured under standar
assay conditions. About 0.5 unit of enzyme was used for each reaction.
Control was the enzyme activity in the absence of reagent.

[5] = molecular target: p48 SIP kinase (salicylic acid-induced protein kinase), activated form from SA- or H2O2-treated tobacco cells, in extracts or purified (tobacco (Nicotiana tabacum cv Xanthi nc))
[6] = 20 min, pH 7.5, read-out: Relative Activity

## O=C(O)c1cccc(O)c1 [3-HBA, 3-hydroxybenzoic acid]
p48 SIP kinase [1]
  activation of 48 kDa (p48 SIP) kinase: poor activators

## O=C(O)c1ccc(Cl)cc1O [4-CSA, 4-chloroSA]
[2]
  induction of PR gene expression and enhanced disease resistance: induce PR gene expression and enhanced disease resistance in tobacco
p48 SIP kinase [1]
  activation of 48 kDa (p48 SIP) kinase: activated the SIP kinase to similar extents as SA
  duration of SIP kinase activation relative to SA: more sustained activation of the SIP kinase than SA

## O=C(O)c1ccc(O)cc1 [4-HBA]
p48 SIP kinase [1]
  activation of 48 kDa (p48 SIP) kinase: poor activators

## O=C(O)c1cc(Cl)ccc1O [5-CSA]
[2]
  induction of PR gene expression and enhanced disease resistance: induce PR gene expression and enhanced disease resistance in tobacco
p48 SIP kinase [1]
  activation of 48 kDa (p48 SIP) kinase: activated the SIP kinase to similar extents as SA
  duration of SIP kinase activation relative to SA: more sustained activation of the SIP kinase than SA

## [Ca+2] [Ca^2+]
p48 SIP kinase [3]
  calcium requirement for activity: lacks a calcium requirement for activity
p48 SIP kinase [4]; 0.5 mM, 20 min
  Relative Activity: 100 % of control
p48 SIP kinase [4]; 5.0 mM, 20 min
  Relative Activity: 50 % of control
p48 SIP kinase [4]
  effect on p48 SIP kinase activity: inhibited the enzyme

## OC(CS)C(O)CS (centres unmarked) [DTT]
p48 SIP kinase [4]; [6]
  activity at 5000 µM: 100%

## CN(C)C(=O)/N=N/C(=O)N(C)C [Diamide]
p48 SIP kinase [4]; [6]
  activity at 5000 µM: 50%

## O=C(O)CN(CCOCCOCCN(CC(=O)O)CC(=O)O)CC(=O)O [EGTA]
p48 SIP kinase [4]; 20 min, pH 7.5, 10 mM, read-out: Relative Activity
  activity at 10000 µM: 100%
p48 SIP kinase [4]
  effect on p48 SIP kinase activity: no effect on its activity

## O=c1c(-c2ccc(O)cc2)coc2cc(O)cc(O)c12 [Genistein, genistein]
p48 SIP kinase [4]; 20 min, pH 7.5, 20 μM, read-out: Relative Activity
  activity at 20 µM: 100%
p48 SIP kinase [4]
  effect on p48 SIP kinase activity: no effect on its activity

## COC(=O)[C@@]1(O)C[C@H]2O[C@]1(C)n1c3ccccc3c3c4c(c5c6ccccc6n2c5c31)C(=O)NC4 [K-252a]
p48 SIP kinase [4]
  IC50: 12 nM
p48 SIP kinase [4]; [6]
  activity at 0.012 µM: 50%

## Nc1ncnc2c1ncn2[C@@H]1O[C@H](COP(=O)(O)OP(=O)([O-])OP(=O)([O-])O)[C@@H](O)[C@H]1O.[Mg+2] [Mg^2+ -ATP]
p48 SIP kinase [3]
  Vmax: 0.39 µmol/min/mg
p48 SIP kinase [3]; Mg^2+ -ATP
  Km: 24 µM

## Nc1nc2c(ncn2[C@@H]2O[C@H](COP(=O)(O)OP(=O)(O)OP(=O)(O)O)[C@@H](O)[C@H]2O)c(=O)[nH]1 [Mg^2+ -GTP]
p48 SIP kinase [3]
  use as phospho-donor / phosphate donor: could not use
p48 SIP kinase [3]; listed as GTP
  use as phospho-donor / phosphate donor: unable to use GTP as a phosphate donor

## [Mg+2] [Mg^2+]
p48 SIP kinase [3]
  metal ion requirement of the enzyme: absolute requirement
p48 SIP kinase [3]; total concentration
  MgCl2 concentration up to which kinase activity was strongly stimulated: ≤ 2 mM

## [Mn+2] [Mn^2+]
p48 SIP kinase [3]
  metal ion requirement of the enzyme: could not substitute for Mg^2+

## [Na+] [Na^+]
p48 SIP kinase [4]; 100 mM, 20 min
  Relative Activity: 100 % of control
p48 SIP kinase [4]; 750 mM, 20 min
  Relative Activity: 50 % of control

## NCCCCNCCCN [Spermidine, spermidine]
p48 SIP kinase [4]; 20 min, pH 7.5, 1 mM, read-out: Relative Activity
  activity at 1000 µM: 100%
p48 SIP kinase [4]
  effect on p48 SIP kinase activity: showed no effect at the concentrations tested

## CN[C@@H]1C[C@H]2O[C@@](C)([C@@H]1OC)n1c3ccccc3c3c4c(c5c6ccccc6n2c5c31)C(=O)NC4 [Staurosporine, staurosporine]
p48 SIP kinase [4]
  IC50: 60 nM
p48 SIP kinase [4]; [6]
  activity at 0.06 µM: 50%

## [Zn+2] [Zn^2+]
p48 SIP kinase [4]; 0.10 mM, 20 min
  Relative Activity: 100 % of control
p48 SIP kinase [4]; 0.25 mM, 20 min
  Relative Activity: 50 % of control
p48 SIP kinase [4]
  effect on p48 SIP kinase activity: inhibited the enzyme

## Heparin
p48 SIP kinase [4]; 50 μg mL^-1, 20 min
  Relative Activity: 50 % of control
p48 SIP kinase [4]
  effect on p48 SIP kinase activity: showed inhibitory effects

## Poly-L-glutamate [listing 1 of 2 here]
p48 SIP kinase [4]; 500 μg mL^-1, 20 min
  Relative Activity: 50 % of control
p48 SIP kinase [4]
  effect on p48 SIP kinase activity: showed inhibitory effects

## Poly-L-glutamate [listing 2 of 2 here]
[5]
  Relative Activity % of control (% of control at 500 µg mL^-1): 50

## Poly-L-glutamine [listing 1 of 2 here]
p48 SIP kinase [4]; 500 μg mL^-1, 20 min
  Relative Activity: 100 % of control
p48 SIP kinase [4]
  effect on p48 SIP kinase activity: showed no effect at the concentrations tested

## Poly-L-glutamine [listing 2 of 2 here]
[5]
  Relative Activity % of control (% of control at 500 µg mL^-1): 100

## Poly-L-lysine [listing 1 of 2 here]
p48 SIP kinase [4]; 25 μg mL^-1, 20 min
  Relative Activity: 50 % of control
p48 SIP kinase [4]
  effect on p48 SIP kinase activity: showed inhibitory effects

## Poly-L-lysine [listing 2 of 2 here]
[5]
  Relative Activity % of control (% of control at 25 µg mL^-1): 50

## Protamine
p48 SIP kinase [4]; 25 μg mL^-1
  Relative Activity: 50 % of control
p48 SIP kinase [4]
  effect on p48 SIP kinase activity: showed inhibitory effects

## protamine
[5]
  Relative Activity % of control (% of control at 25 µg mL^-1): 50
